Measurements from patent US8754241B2, “Organic compound and electrochromic element having the same” (Canon Kabushiki Kaisha, priority 2012, dated 2014).
Converted amounts (≈) assume the structure as drawn.

Columns and labels:
Type in all cases: physicochemical
[1] = ultraviolet-visible absorption spectrum in the neutral state, chloroform solution
Description: The exemplary compound B-2 thus obtained was dissolved in chloroform, and the absorption spectrum of this solution measured by using an ultraviolet-visible spectrophotometer (V-560 manufactured by JASCO Corporation) is shown in FIG. 2.

[2] = solubility in propylene carbonate solution of supporting electrolyte; conditions: propylene carbonate solution of LiCO4 (0.1 mol/L), organic solvent or mixture
Description: In addition, as one example of the element solvent, the solubility of the compound D-11 in a propylene carbonate solution of LiCO4 (supporting electrolyte, 0.1 mol/L) was confirmed. According to the result, it was confirmed that this compound was dissolved at a concentration of 9 mmol/L and that the solubility thereof was higher than the solubility (6 mmol/L) of the compound B-2 of Example 1. The reason for this is believed that since having an ester group-containing phenyl group at the 3-position of DTT, the compound D-11 has an improved solubility into propylene carbonate, which is a polar solvent.

[3] = oxidation absorption spectrum / change in transmittance on constant potential oxidation; conditions: for shape and wavelength of the oxidation absorption peak with concentration (π-dimer formation): 5.0×10^−4 or 1.7×10^−4 mol/L; for transmittance after oxidation / light absorption peak in the oxidized state: constant potential oxidation at +0.9 V (vs. Ag/Ag+); for transmittance after oxidation: at the absorption peak
Description: (§1) For the measurement of an oxidation absorption spectrum, platinum was used for a working electrode, platinum was used for a counter electrode, silver was used for a reference electrode, and a dichloromethane solution was used in which tetrabutylammonium perchlorate (0.1 mol/l) as a supporting electrolyte and each of the above compounds (5.0×10^−4 or 1.7×10^−4 mol/L) were dissolved.
In this solution, constant potential oxidation at +0.9 V (vs. Ag/Ag+), which was equal to or more than the oxidation potential of the compound, was performed, and the change in transmittance was measured.
The measurement of the oxidation absorption spectrum of the obtained compound D-11 was performed as in Example 4 using a dichloromethane solution in which tetrabutylammonium perchlorate (0.1 mol/L) and D-11 (5.0×10^−4 mol/L) were dissolved. […] This oxidation colored state was again returned to a colorless and transparent state by reduction, and the electrochromic characteristics in conformity with oxidation-reduction were confirmed. In addition, since the shape and the absorption wavelength of this oxidation absorption peak were not changed with the concentration, it was shown that as in Example 4, the formation of π-dimers was suppressed.

[4] = oxidation-reduction cycle durability test (cyclic voltammetry); conditions: dichloromethane; for change in oxidation peak current after 20,000 oxidation-reduction cycles (in words): 20,000 cycles; for Rate of Change in Oxidation Peak Current after Oxidation-Reduction Cycles for 20,000 Times: tetrabutylammonium perchlorate 0.1 mol/L, compound 1.0×10^−4 mol/L, initial current = 100%
Description: as §1, with “durability measurement, glassy carbon” for “measurement of an oxidation absorption spectrum, platinum”, “mol/L)” for “mol/l)”, “(1.0×10^−4” for “(5.0×10^−4 or 1.7×10^−4”
In this solution, a square-wave potential program including constant potential oxidation at +0.8 V (B-2 and B-1) or +1.2 V (XX-4) (vs. Ag/Ag^+), each of which was equal to or more than the oxidation potential of the corresponding compound, for 3 seconds and subsequent constant potential reduction at 0 V (vs. Ag/Ag^+) for 3 seconds was repeatedly performed 20,000 times.
The changes in oxidation peak current in cyclic voltammetry (CV) measurement before and after the oxidation-reduction cycles for 20,000 times are shown in Table.
In this table, the “rate of change in oxidation peak current” indicates a value obtained by adding the change in current from the initial current (represented by 100%) to the initial current.

| λ max at which the absorption peak showed the maximum intensity [1] [nm] | solubility [2] [mM] | shape and wavelength of the oxidation absorption peak with concentration (π-dimer formation) [3] | transmittance after oxidation [3] [%] | light absorption peak in the oxidized state ([3]; dichloromethane) | change in oxidation peak current after 20,000 oxidation-reduction cycles (in words) [4] | Rate of Change in Oxidation Peak Current after Oxidation-Reduction Cycles for 20,000 Times [4] [%] | transmittance in the bleached state before oxidation ([3]; over the entire visible light region, dichloromethane) | Structure (SMILES) | absorption in the visible light region [1] |
| --- | --- | --- | --- | --- | --- | --- | --- | --- | --- |
| 316.0 | 9 (≈ 7140 µg/mL) | not changed | 36.3 | 541.5 nm | – | – | – | COC(=O)c1ccc(-c2c(-c3c(OC)cccc3OC(C)C)sc3c2sc2c(-c4ccc(C(=O)OC)cc4)c(-c4c(OC)cccc4OC(C)C)sc23)cc1 [D-11] | no absorption over the entire visible light region |
| 307.5 | 6 (≈ 4060 µg/mL) | not changed | – | – | hardly observed | 101 | – | COc1cccc(OC(C)C)c1-c1sc2c(sc3c(-c4ccccc4)c(-c4c(OC)cccc4OC(C)C)sc32)c1-c1ccccc1 [B-2] | no absorption over the entire visible light region |
| 309.5 | – | not changed | 20.3 | approximately 510 nm | hardly observed | 98 | approximately 100% | COc1cccc(OC)c1-c1sc2c(sc3c(-c4ccccc4)c(-c4c(OC)cccc4OC)sc32)c1-c1ccccc1 [B-1] | no absorption over the entire visible light region |
| – | – | – | – | – | decreased | 81 | – | CC(C)(C)c1cc2sc3cc(C(C)(C)C)sc3c2s1 [XX-4, reference compound] | – |
